The numbers were not newly measured in patent publication US12667556B2, “Extended release injectable formulations comprising an isoxazoline active agent, methods and uses thereof” (BOEHRINGER INGELHEIM ANIMAL HEALTH USA INC., priority 2015, dated 2026), which cites them from elsewhere.

≈ marks a conversion by molar mass, not a printed value.

In this series the test system is fleas.

Regarding `O=C(CNC(=O)c1ccc(C2=NOC(c3cc(Cl)cc(C(F)(F)F)c3)(C(F)(F)F)C2)c2ccccc12)NCC(F)(F)F` (centres unmarked) [compound (IIc), 4-[5-[3-chloro-5-(trifluoromethyl)phenyl]-4,5-dihydro-5-(trifluoromethyl)-3-isoxazolyl]-N-[2-oxo-2-[(2,2,2-trifluoroethyl)amino]ethyl]-1-naphthalenecarboxamide], where the note is “Letendre et al., Veterinary Parasitology 201 (2014) 190-197”, the “EC90 (plasma concentration) against fleas on dogs” value is 0.023 mg/L (≈ 0.0367 µM). Also, for the setting “known, literature”, the “plasma concentration known to effectively control fleas on dogs” value is “about 20 ng/ml”.
